Several values for one entry are separate records, joined by “and”; a condition that tells them apart may be missing. Equal entries are not always repeated.

The subject of experiment [1] is rat myocardial ischemia models induced by coronary artery ligation. Nature of the experiment: Myocardial infarction area of rats after coronary artery ligation (N-BT staining). The format is in vivo, Sprague-Dawley male rats. Particulars: 5 hours after coronary artery ligation, x ± SD. The source says:
Sprague-Dawley male rats of clean grade weighting 200-220 g were supplied by the animal experimental center of the Second Military Medical University (license number: SCXK (Shanghai)-2007-0003). • 2.1.2 Experimental groups
Experimental rats were randomly divided into four groups: sham group: n=8, model group: n=9, MLIF low-dose group: n=11, MLIF high-dose group: n=12. The dose of medicine could be administrated according to rat body weight. MLIF low-dose group and MLIF high-dose group were administrated by tail intravenous injection prepared with normal saline as solvent at the dose of 0.15 mg/kg and 0.5 mg/kg, respectively. • 2.1.3 Coronary artery ligation and measurement of myocardial infarction area of rats
The Sprague-Dawley male rats were abdomen anesthetized with 25% urethane (0.4 ml/100 g) and fixated at supine position. The chest was cut open among the fifth rib at left, and then the fourth and fifth ribs were cut off along the left side of sterna at 2 mm. The pericardium was snipped off with heart exposed, and a 0/3 suture line was passed through the left anterior descending coronary artery. The rats were administrated by tail intravenous injection slowly. After 10 minutes, the left anterior descending coronary artery was ligated rapidly and the heart was returned to its chest, removing the air within the thorax by hand, closing the thorax and tightening the purse-string suture rapidly. The entire process of opening and closing chest was performed within 30 seconds. The coronary arteries of rats of sham group were not ligated since the myocardial ischemia would be caused by coronary artery ligation.
The rats were administrated by tail intravenous injection with the dose of 0.15 mg/kg (MLIF low-dose group) and 0.5 mg/kg (MLIF high-dose group) at 15 minutes after coronary artery ligation with the same volume of normal saline administrated in sham group and model group. Each group of animals was executed at 5 hours after coronary artery ligation. The heart was taken out and the heart ventricle muscle was transversely chipped into 5 slices, the cut position of which was parallel to coronary sulcus under the coronary artery ligation line. The five slices of the heart ventricle muscle were stained with Nitroblue tetrazolium (N-BT) for 15 minutes with shaking. The normal heart ventricle muscle was dyed into dark blue while that of the area of myocardial infarction was unstained with normally light yellow. The area of myocardial infarction was isolated by a dissecting microscope and the whole heart weight, the left ventricle weight and the area of myocardial infarction weight were weighed, respectively, the percent (%) of area of myocardial infarction weight to whole heart weight were quantified as an measure on myocardial infarction area ranges. • 2.1.4 Data and statistics analysis
(§1) All experimental data are given as x±SD. Differences between the groups were calculated by analysis of variance (SPSS 10.0).

For experiment [2], the system named is acute myocardial ischemia rats (coronary artery ligation). Nature of the experiment: Serum creatine kinase (CK) and lactic dehydrogenase (LDH) of acute myocardial ischemia rats. The format is in vivo, Sprague-Dawley male rats. Particulars: blood at 5 hours after coronary artery ligation, x ± SD; for LDH activity in blood serum: P < 0.01 vs model group; for CK activity in blood serum: P < 0.05 vs model group.
Text: Sprague-Dawley male rats of clean grade weighting 200-220 g were supplied by the animal experimental center of the Second Military Medical University (license number: SCXK (Shanghai)-2007-0003). • 2.2.2 Experimental groups
Experimental rats were randomly divided into four groups: sham group: n=7, model group: n=8, MLIF low-dose group: n=8, MLIF high-dose group: n=9. The dose of medicine could be administrated according to rat body weight. MLIF low-dose group and MLIF high-dose group were administrated by tail intravenous injection prepared with normal saline as solvent at the dose of 0.15 mg/kg and 0.5 mg/kg, respectively. • 2.2.3 Coronary artery ligation and determination of CK and LDH in blood serum
Coronary artery ligations of rats were carried out as described previously. 3m1 blood sample of each animal was taken from femoral artery at 5 hours after coronary artery ligation and the blood serum was collected according to the method of convengtional centrifugalization. The creatine kinase (CK) and lactic dehydrogenase (LDH) activities in blood serum were measured by semi-automatic biochemical analyzer. • 2.2.4 Data and statistics analysis
as §1

Setting [3] is: MLIF high-dose group 0.5 mg/kg tail i.v.
Where [4] appears, read: MLIF high-dose group 0.5 mg/kg tail i.v., P < 0.01 vs model group.
Where [5] appears, read: MLIF low-dose group 0.15 mg/kg tail i.v.
Setting [6] is: MLIF low-dose group 0.15 mg/kg tail i.v., P < 0.05 vs model group.

Turning to Met-Gln-Cys-Asn-Ser (MQCNS) [MLIF], the “area of myocardial infarction weight” value in experiment [1] (setting [3]) was 158 ± 22.4^ΔΔ mg; in experiment [1] (setting [5]), 187 ± 22.8^ΔΔ mg. The “area of myocardial infarction/ left ventricle” value is 30±3.7% and 30 ± 3.7^ΔΔ, ** % in experiment [1] (setting [4]); 33±3.2% and 33 ± 3.2^ΔΔ, * % in experiment [1] (setting [6]). Besides, the “area of myocardial infarction/ whole heart” value was 20±2.7% and 20 ± 2.7^ΔΔ, ** % in experiment [1] (setting [4]); 22±1.9% and 22 ± 1.9^ΔΔ, * % in experiment [1] (setting [6]). Also, the “LDH activity in blood serum” value in experiment [2] (setting [3]) is 3642±817 IU/L and 3642 ± 817^ΔΔ, ** IU/L; in experiment [2] (setting [5]) it was 3156±864.1 IU/L and 3156 ± 864.1^ΔΔ, ** IU/L. The “CK activity in blood serum” value was 5244±1787.8 IU/L and 5244 ± 1787.8^ΔΔ, * IU/L in experiment [2] (setting [3]); 5258±2114.3 IU/L and 5258 ± 2114.3^ΔΔ, * IU/L in experiment [2] (setting [5]).

(Values after patent US20130102535A1, “Method for Preventing Myocardial Ischemia” (Shanghai Bajiayi Pharmaceutical Science and Technology Co. …, priority 2009, published 2013).)
